Reference: US20100216827A1 (Metabolex, Inc., priority 2008, published 2010)
Read-outs that look alike come from different tables or passages of the source.

Legend:
human GPR120 = target: T1, human GPR120 (Homo sapiens, UniProt Q5NUL3); test: Intracellular Ca2+ (FLIPR Calcium 4, Flexstation) assay in human GPR120 stable HEK293 cell line coexpressing Gqi5; assay type: cell-based; conditions: for % Activity at 5 μM: 5 μM compound compared to the maximal activity of GW9508 at 6.7 μM (100%); for EC50: human GPR120 stably expressing cells, 8 concentrations 0.00001 to 20 μM
T1 construct: host or cells: HEK293 cells coexpressing Gqi5
T1 sequence (Q5NUL3 1-361): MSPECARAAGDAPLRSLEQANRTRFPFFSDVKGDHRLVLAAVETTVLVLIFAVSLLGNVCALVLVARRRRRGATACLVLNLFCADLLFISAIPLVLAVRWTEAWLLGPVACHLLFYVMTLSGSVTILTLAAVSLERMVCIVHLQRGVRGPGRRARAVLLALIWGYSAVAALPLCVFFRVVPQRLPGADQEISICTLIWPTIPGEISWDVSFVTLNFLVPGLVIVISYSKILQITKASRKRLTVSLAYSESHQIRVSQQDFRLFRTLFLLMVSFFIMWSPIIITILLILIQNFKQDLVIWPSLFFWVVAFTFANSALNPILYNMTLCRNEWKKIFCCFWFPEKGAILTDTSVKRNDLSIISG
In short: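 Calcium 4 dye-loaded HEK293 cells expressing N-terminally Flag-tagged human GPR120 with Gqi5 (HBSS/20 mM HEPES, pH 7.4; 50 min, 37 °C). Fluorescence (485/525 nm) read for 90 s after addition of compound at 8 concentrations, 0.00001–20 μM; EC50 from Max−Min change. % activity at 5 μM versus maximal GW9508 response (6.7 μM).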

C57BL/6J mice [1] = test: Intra-peritoneal glucose tolerance test (IPGTT); assay type: in vivo; conditions: 100 mg/kg oral gavage, overnight fasted male C57BL/6J mice, 2 g/kg glucose i.p., vs vehicle
Procedure: 8-10 week old male C57BL/6J mice (Harlan) were maintained on regular chow diet from Harlan (2018 Teklad Global). For the oral glucose tolerance test (OGTT), on the day of the experiment mice were fasted for 6 hours, then randomized into groups (n=10-15) to receive the tested GPR120 agonist at doses ranging from 30 mg/kg to 100 mg/kg or the vehicle (1% CMC, 2% TWEEN 80). For the intra-peritoneal glucose tolerance test (IPGTT), the mice were fasted for overnight, then randomized into groups (n=10-15) to receive the tested GPR120 agonist at doses ranging from 30 mg/kg to 100 mg/kg or the vehicle (1% CMC, 2% TWEEN 80). Compounds were delivered orally via gavage at 10 mL/kg. Blood glucose levels were measured by glucometer (Ascensia Elite XL, Bayer) at time −30 minutes before administration of compound. Blood glucose was measured again after 30 minutes (at time 0), and then the mice were dosed orally with 3 g/kg glucose at 10 mL/kg or were dosed intraperitoneally with 2 g/kg glucose at 10 mL/kg. […]
Glucose levels were plotted against time, and the incremental area under the curve (AUC) of the glucose excursion was determined from time 0 using Graphpad Prism 5.01. Outliers were excluded using Tukey's box plot outlier test, and statistical significance of differences in AUC of compound treatment compared to vehicle was determined by non-parametric Kruskal-Wallis test with Dunn's post test. […]

C57BL/6J mice [2] = test: Oral glucose tolerance test (OGTT); assay type: in vivo; conditions: 6 h fasted male C57BL/6J mice, 3 g/kg oral glucose, vs vehicle
Procedure: 8-10 week old male C57BL/6J mice (Harlan) were maintained on regular chow diet from Harlan (2018 Teklad Global). For the oral glucose tolerance test (OGTT), on the day of the experiment mice were fasted for 6 hours, then randomized into groups (n=10-15) to receive the tested GPR120 agonist at doses ranging from 30 mg/kg to 100 mg/kg or the vehicle (1% CMC, 2% TWEEN 80). For the intra-peritoneal glucose tolerance test (IPGTT), the mice were fasted for overnight, then randomized into groups (n=10-15) to receive the tested GPR120 agonist at doses ranging from 30 mg/kg to 100 mg/kg or the vehicle (1% CMC, 2% TWEEN 80). Compounds were delivered orally via gavage at 10 mL/kg. Blood glucose levels were measured by glucometer (Ascensia Elite XL, Bayer) at time −30 minutes before administration of compound. Blood glucose was measured again after 30 minutes (at time 0), and then the mice were dosed orally with 3 g/kg glucose at 10 mL/kg or were dosed intraperitoneally with 2 g/kg glucose at 10 mL/kg. Blood glucose measurements were taken 20, 40, 60, 90 and 120 minutes after glucose administration, by glucometer (Ascensia Elite XL, Bayer).
Glucose levels were plotted against time, and the incremental area under the curve (AUC) of the glucose excursion was determined from time 0 using Graphpad Prism 5.01. Outliers were excluded using Tukey's box plot outlier test, and statistical significance of differences in AUC of compound treatment compared to vehicle was determined by non-parametric Kruskal-Wallis test with Dunn's post test.
The compounds were tested at 100 mg/kg and the levels of blood glucose were determined in the presence and absence of the tested compounds. The percentage of glucose or intra-peritoneal reduction is reported as a percent reduction in AUC (area under the curve). The tested compound was selected as examples from the exemplified compounds.

| % Activity at 5 μM (human GPR120) [%] | EC50 (human GPR120; read-out: EC50 ≦ 1 μM) [µM] | EC50 (human GPR120; read-out: EC50 between >1 μM and ≦10 μM) [µM] | Compound | % reduction in IPGTT AUC (C57BL/6J mice [1]) [%] | % reduction in OGTT AUC (C57BL/6J mice [2]; 30 mg/kg oral gavage) [%] | % reduction in OGTT AUC (C57BL/6J mice [2]; 100 mg/kg oral gavage) [%] |
| --- | --- | --- | --- | --- | --- | --- |
| 96 | ≤ 1 |  | Cc1cc(COc2c(F)cc(CC(C)C(=O)O)cc2F)n(-c2ccc(Cl)cc2)n1 (centres unmarked) [Example 36, 3-(4-((1-(4-chlorophenyl)-3-methyl-1H-pyrazol-5-yl)methoxy)-3,5-difluorophenyl)-2-methylpropanoic acid] | 24 | 15 | 45.2 |
|  |  |  | Cc1cc(COc2c(F)cc(C[C@@H](C)C(=O)O)cc2F)n(-c2ccc(Cl)cc2)n1 [Example 43, (R)-3-(4-((1-(4-chlorophenyl)-3-methyl-1H-pyrazol-5-yl)methoxy)-3,5-difluorophenyl)-2-methylpropanoic acid] |  | 20 | 40 |
|  |  |  | Cc1cc(COc2c(F)cc(C[C@H](C)C(=O)O)cc2F)n(-c2ccc(Cl)cc2)n1 [Example 44, (S)-3-(4-((1-(4-chlorophenyl)-3-methyl-1H-pyrazol-5-yl)methoxy)-3,5-difluorophenyl)-2-methylpropanoic acid] |  | 33 | 39 |
| 107 |  | 1 to 10 | COc1cc(CCC(=O)O)ccc1OCc1cc(C)nn1-c1ccc(Cl)cc1 [Example 133, 3-(4-((1-(4-chlorophenyl)-3-methyl-1H-pyrazol-5-yl)methoxy)-3-methoxyphenyl)propanoic acid] |  |  |  |
